Assay results reported in ChEMBL document CHEMBL4507268 (2021).

What was measured:
[1] = target: Glycogen synthase kinase-3 beta (Homo sapiens) (UniProt P49841); settings: Compound concentration 1000.0 nM
[2] = target: T1, Serine/threonine-protein kinase Sgk2 (Homo sapiens) (UniProt Q9HBY8); settings: Compound concentration 1000.0 nM
T1 sequence (whole entry): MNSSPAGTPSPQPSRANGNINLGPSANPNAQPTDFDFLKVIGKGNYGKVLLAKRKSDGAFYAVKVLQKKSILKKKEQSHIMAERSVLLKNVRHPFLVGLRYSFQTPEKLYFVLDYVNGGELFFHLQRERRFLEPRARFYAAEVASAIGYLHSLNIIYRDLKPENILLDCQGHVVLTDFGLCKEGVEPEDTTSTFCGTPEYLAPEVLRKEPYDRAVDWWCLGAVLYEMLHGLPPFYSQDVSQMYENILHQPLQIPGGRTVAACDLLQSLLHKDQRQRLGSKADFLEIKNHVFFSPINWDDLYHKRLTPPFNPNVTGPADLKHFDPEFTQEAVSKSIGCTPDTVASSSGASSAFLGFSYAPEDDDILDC

[3] = target: Tyrosine-protein kinase Srms (Homo sapiens) (UniProt Q9H3Y6); settings: Compound concentration 1000.0 nM
[4] = target: RAC-gamma serine/threonine-protein kinase (Homo sapiens) (UniProt Q9Y243); settings: Compound concentration 1000.0 nM
[5] = system: Epidermal growth factor receptor (Homo sapiens), P00533 [UNDEFINED MUTATION]; settings: Compound concentration 1000.0 nM
[6] = target: Phosphatidylinositol 4,5-bisphosphate 3-kinase catalytic subunit beta isoform (Homo sapiens) (UniProt P42338); settings: Compound concentration 1000.0 nM
[7] = target: 5-hydroxytryptamine receptor 1E (Homo sapiens) (UniProt P28566); settings: Compound concentration 10.0 uM
[8] = target: Serine/threonine-protein kinase 38 (Homo sapiens) (UniProt Q15208); settings: Compound concentration 1000.0 nM
[9] = system: Proto-oncogene tyrosine-protein kinase receptor Ret (Homo sapiens), P07949 [V804M]; settings: Compound concentration 1000.0 nM
[10] = target: 5-hydroxytryptamine receptor 1D (Homo sapiens) (UniProt P28221); settings: Compound concentration 10.0 uM
[11] = target: T2, Tyrosine-protein kinase ITK/TSK (Homo sapiens) (UniProt Q08881); settings: Compound concentration 1000.0 nM
T2 sequence (whole entry): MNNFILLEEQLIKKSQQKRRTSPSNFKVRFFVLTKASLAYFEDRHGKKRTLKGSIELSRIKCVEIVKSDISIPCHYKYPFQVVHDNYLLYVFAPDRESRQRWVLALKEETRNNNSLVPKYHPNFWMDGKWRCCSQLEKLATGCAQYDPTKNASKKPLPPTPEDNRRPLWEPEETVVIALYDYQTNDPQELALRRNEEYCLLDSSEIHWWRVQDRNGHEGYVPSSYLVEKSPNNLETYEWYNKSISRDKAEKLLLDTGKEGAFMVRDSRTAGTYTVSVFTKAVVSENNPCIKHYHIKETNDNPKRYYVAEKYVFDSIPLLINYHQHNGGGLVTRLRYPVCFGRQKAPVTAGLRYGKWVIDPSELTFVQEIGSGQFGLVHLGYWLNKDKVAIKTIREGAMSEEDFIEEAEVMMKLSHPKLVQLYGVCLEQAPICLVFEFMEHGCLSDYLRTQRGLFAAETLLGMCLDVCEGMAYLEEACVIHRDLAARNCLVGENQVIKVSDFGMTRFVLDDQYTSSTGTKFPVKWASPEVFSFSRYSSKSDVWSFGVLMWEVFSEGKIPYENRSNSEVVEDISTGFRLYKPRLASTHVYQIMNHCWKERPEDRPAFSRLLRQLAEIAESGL

[12] = target: MAP kinase-activated protein kinase 2 (Homo sapiens) (UniProt P49137); settings: Compound concentration 1000.0 nM
[13] = target: T3, cGMP-dependent protein kinase 1 (Homo sapiens) (UniProt Q13976); settings: Compound concentration 1000.0 nM
T3 sequence (whole entry): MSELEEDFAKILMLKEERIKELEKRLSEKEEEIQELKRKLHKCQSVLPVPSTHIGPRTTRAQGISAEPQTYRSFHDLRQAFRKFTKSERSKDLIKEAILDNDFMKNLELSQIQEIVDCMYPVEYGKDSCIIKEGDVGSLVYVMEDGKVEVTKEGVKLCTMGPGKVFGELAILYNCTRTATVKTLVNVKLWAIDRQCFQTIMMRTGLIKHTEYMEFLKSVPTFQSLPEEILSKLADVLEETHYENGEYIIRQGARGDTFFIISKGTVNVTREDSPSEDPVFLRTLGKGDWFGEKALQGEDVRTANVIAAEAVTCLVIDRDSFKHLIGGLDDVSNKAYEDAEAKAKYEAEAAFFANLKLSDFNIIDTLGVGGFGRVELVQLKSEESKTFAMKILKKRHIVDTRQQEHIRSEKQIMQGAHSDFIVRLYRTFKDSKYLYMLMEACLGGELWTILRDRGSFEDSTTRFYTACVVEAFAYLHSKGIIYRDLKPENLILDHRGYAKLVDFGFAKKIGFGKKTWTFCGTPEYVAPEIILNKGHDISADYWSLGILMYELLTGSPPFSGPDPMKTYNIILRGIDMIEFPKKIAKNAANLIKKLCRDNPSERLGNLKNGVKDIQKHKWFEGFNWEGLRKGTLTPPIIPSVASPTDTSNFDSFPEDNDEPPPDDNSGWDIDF

[14] = target: Myosin light chain kinase 2, skeletal/cardiac muscle (Homo sapiens) (UniProt Q9H1R3); settings: Compound concentration 1000.0 nM
[15] = target: Serine/threonine-protein kinase SIK2 (Homo sapiens) (UniProt Q9H0K1); settings: Compound concentration 1000.0 nM
[16] = target: Tyrosine-protein kinase Fgr (Homo sapiens) (UniProt P09769); settings: Compound concentration 1000.0 nM
[17] = target: Alpha-2C adrenergic receptor (Homo sapiens) (UniProt P18825); settings: Compound concentration 10.0 uM
[18] = target: Serine/threonine-protein kinase WNK4 (Homo sapiens) (UniProt Q96J92); settings: Compound concentration 1000.0 nM
[19] = target: Mitogen-activated protein kinase kinase kinase 4 (Homo sapiens) (UniProt Q9Y6R4); settings: Compound concentration 1000.0 nM
[20] = target: Fibroblast growth factor receptor 1 (Homo sapiens) (UniProt P11362); settings: Compound concentration 1000.0 nM
[21] = target: TGF-beta receptor type-2 (Homo sapiens) (UniProt P37173); settings: Compound concentration 1000.0 nM
Sequence of TGF-beta receptor type-2 (Homo sapiens) (P37173 whole entry): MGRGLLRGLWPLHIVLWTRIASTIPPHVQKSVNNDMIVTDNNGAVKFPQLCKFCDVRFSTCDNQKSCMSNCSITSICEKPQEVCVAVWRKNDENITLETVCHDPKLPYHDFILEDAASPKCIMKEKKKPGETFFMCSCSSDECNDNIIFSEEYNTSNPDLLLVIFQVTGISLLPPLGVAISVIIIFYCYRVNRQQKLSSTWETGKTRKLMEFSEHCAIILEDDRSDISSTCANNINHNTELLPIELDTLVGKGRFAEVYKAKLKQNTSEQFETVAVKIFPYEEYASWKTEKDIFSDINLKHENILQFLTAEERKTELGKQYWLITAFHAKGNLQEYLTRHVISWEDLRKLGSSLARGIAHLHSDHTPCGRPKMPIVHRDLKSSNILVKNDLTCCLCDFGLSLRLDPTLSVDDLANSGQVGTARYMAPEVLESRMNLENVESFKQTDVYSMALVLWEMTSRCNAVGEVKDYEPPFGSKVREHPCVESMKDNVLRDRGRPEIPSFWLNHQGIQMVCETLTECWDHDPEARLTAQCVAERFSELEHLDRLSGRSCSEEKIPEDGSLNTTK

Sequence of Phosphatidylinositol 4,5-bisphosphate 3-kinase catalytic subunit beta isoform (Homo sapiens) (P42338 whole entry, looked up, canonical isoform): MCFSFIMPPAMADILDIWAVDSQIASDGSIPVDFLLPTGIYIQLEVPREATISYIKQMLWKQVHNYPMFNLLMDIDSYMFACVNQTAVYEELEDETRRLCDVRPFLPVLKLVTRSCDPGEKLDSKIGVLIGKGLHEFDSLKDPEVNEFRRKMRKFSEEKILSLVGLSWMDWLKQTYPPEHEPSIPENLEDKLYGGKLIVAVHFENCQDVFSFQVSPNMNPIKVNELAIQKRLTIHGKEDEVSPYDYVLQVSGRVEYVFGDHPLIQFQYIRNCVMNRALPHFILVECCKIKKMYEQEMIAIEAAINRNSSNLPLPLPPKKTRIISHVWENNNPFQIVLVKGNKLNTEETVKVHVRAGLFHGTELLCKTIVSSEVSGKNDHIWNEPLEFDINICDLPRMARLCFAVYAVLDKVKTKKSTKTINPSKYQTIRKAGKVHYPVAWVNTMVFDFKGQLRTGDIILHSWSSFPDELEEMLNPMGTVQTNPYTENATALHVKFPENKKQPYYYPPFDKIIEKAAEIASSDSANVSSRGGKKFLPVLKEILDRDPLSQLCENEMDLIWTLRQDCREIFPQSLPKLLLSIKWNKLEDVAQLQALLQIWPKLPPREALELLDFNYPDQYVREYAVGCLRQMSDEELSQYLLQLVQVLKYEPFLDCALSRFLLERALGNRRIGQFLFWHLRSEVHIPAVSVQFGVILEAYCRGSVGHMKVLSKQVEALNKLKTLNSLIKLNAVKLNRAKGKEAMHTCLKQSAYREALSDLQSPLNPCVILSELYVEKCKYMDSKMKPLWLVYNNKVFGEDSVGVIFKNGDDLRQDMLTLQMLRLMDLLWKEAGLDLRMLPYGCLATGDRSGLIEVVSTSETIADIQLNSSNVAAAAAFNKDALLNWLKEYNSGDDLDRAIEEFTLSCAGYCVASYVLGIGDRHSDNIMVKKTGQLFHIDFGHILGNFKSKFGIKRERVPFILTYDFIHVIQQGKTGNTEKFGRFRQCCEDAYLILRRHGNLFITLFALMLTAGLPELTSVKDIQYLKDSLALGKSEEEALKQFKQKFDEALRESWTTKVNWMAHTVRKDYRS
Sequence of Tyrosine-protein kinase Fgr (Homo sapiens) (P09769 2-529 limits assumed): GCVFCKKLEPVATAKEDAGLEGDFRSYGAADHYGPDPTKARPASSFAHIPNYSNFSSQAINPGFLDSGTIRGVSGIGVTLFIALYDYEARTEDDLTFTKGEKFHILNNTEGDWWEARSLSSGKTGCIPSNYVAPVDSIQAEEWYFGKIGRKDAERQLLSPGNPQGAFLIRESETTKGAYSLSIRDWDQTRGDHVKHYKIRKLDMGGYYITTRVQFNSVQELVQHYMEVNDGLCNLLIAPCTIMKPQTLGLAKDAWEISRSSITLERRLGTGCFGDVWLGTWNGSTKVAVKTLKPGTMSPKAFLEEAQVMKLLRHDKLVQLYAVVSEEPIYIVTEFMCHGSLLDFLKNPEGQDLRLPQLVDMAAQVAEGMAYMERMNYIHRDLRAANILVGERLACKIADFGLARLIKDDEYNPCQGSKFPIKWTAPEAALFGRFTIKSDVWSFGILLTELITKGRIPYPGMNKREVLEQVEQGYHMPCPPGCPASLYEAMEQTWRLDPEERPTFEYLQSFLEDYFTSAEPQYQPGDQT
Sequence of Proto-oncogene tyrosine-protein kinase receptor Ret (Homo sapiens), P07949 [V804M] (P07949 whole entry V804M): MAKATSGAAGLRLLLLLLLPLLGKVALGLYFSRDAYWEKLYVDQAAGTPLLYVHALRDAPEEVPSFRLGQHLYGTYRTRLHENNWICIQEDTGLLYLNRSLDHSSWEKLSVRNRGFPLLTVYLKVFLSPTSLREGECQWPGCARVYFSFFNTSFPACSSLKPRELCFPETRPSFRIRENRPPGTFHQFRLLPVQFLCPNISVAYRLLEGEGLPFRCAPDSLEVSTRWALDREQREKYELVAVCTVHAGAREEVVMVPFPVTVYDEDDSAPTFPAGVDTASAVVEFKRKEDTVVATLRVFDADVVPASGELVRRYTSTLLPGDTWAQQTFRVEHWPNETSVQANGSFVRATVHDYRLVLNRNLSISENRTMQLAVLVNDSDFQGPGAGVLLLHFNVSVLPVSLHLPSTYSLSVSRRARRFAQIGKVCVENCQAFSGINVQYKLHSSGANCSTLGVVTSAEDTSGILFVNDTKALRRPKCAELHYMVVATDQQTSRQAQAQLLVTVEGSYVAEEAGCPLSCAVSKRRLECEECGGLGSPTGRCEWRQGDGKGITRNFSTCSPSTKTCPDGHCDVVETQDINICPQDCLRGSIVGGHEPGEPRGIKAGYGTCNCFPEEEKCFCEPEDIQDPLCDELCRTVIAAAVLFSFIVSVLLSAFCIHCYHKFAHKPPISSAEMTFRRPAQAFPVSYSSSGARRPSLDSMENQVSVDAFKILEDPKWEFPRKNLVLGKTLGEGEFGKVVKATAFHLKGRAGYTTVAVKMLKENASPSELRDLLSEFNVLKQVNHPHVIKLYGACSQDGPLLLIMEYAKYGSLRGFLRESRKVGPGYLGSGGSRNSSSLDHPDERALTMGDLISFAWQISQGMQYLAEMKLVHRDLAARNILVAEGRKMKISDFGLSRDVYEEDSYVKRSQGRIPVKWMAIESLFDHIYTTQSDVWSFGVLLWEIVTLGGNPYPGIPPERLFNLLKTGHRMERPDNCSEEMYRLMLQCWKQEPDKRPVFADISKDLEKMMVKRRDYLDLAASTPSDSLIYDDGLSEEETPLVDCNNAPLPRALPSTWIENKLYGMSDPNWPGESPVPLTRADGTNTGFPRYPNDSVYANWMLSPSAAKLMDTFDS
Sequence of Alpha-2C adrenergic receptor (Homo sapiens) (P18825 whole entry): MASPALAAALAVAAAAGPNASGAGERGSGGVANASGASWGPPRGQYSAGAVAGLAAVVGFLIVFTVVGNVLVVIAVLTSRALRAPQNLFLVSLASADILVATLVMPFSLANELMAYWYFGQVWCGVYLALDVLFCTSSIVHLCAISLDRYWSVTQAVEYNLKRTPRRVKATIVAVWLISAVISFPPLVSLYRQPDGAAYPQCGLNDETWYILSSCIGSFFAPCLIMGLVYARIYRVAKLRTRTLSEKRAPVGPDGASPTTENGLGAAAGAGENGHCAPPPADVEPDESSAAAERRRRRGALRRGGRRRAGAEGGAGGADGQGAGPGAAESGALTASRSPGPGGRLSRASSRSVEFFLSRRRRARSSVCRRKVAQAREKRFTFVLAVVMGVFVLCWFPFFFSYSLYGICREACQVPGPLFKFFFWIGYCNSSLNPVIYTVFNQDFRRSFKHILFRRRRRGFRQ
Sequence of Serine/threonine-protein kinase SIK2 (Homo sapiens) (Q9H0K1 whole entry, looked up): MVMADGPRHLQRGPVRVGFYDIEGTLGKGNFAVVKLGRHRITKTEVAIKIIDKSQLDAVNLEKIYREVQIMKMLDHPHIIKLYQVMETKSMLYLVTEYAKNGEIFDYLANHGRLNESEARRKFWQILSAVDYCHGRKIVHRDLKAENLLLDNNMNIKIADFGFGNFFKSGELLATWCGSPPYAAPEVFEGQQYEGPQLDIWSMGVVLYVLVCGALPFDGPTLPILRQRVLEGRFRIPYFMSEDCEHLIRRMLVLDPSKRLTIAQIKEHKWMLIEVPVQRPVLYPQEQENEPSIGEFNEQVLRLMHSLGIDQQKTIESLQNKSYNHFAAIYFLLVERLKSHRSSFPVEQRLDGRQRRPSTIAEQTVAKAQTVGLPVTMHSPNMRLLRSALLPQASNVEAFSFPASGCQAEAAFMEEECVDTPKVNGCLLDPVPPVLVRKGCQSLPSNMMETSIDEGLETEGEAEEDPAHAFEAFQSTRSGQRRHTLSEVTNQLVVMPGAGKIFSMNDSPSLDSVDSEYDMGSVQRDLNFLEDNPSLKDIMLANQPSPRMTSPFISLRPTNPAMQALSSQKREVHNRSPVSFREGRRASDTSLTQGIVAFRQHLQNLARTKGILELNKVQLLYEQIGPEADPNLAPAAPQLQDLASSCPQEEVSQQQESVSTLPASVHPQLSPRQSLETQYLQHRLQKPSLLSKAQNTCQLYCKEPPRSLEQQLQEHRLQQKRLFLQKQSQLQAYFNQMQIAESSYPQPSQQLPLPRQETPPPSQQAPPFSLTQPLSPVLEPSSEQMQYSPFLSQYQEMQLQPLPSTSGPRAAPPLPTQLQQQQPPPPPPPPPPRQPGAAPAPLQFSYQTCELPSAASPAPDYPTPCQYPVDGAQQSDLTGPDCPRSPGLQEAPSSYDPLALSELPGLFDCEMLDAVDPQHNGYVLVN
Sequence of MAP kinase-activated protein kinase 2 (Homo sapiens) (P49137 whole entry, looked up): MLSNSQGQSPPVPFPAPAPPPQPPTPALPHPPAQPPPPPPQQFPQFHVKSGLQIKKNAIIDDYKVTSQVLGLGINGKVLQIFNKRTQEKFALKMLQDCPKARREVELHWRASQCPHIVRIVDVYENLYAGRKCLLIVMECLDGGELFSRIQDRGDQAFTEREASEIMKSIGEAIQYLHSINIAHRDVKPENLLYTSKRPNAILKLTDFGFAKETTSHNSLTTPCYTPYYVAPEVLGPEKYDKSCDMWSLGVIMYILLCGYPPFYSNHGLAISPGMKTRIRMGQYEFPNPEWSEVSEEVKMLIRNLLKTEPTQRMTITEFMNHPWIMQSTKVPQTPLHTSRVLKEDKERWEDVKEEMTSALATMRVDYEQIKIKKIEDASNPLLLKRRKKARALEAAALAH

Cc1nc(C2CCN(C(=O)c3ccc(OC(F)(F)F)cc3N)CC2)c2ncc(N3CCN(C)CC3)cc2n1 [BAY-693]
inactive: residual activity [1] 100% | residual activity [2] 94% | residual activity [3] 100% | residual activity [4] 95% | residual activity [5] 100% | residual activity [6] 94% | inhibition [7] -9.94% | residual activity [8] 94% | residual activity [9] 100% | inhibition [10] -2.17% | residual activity [11] 89% | residual activity [12] 100% | residual activity [13] 100% | residual activity [14] 87% | residual activity [15] 100% | residual activity [16] 100% | inhibition [17] -6.01% | residual activity [18] 100% | residual activity [19] 100% | residual activity [20] 100% | residual activity [21] 93%

CN1CCN(c2cnc3c(C4CCN(C(=O)c5ccc(OC(F)(F)F)cc5N)CC4)ncnc3c2)CC1 [BAY-885]
inactive: residual activity [1] 100% | residual activity [2] 92% | residual activity [3] 100% | residual activity [4] 93% | residual activity [5] 100% | residual activity [6] 100% | inhibition [7] 14.2% | residual activity [8] 80% | residual activity [9] 100% | inhibition [10] 16% | residual activity [11] 100% | residual activity [12] 100% | residual activity [13] 83% | residual activity [14] 85% | residual activity [15] 100% | residual activity [16] 100% | inhibition [17] -2.34% | residual activity [18] 99% | residual activity [19] 95% | residual activity [20] 100% | residual activity [21] 88%
